Results as given in patent US9115143B2, “Substituted indole derivatives as gamma secretase modulators” (Janssen Pharmaceuticals, Inc., priority 2011, dated 2015).

Legend:
Aβtotal = assay: In vivo efficacy B-1a/B-2a: brain soluble Aβtotal in non-transgenic rodents, ELISA; set-up: species or system mouse; details: dose 30 mg/kg oral dosing, brain soluble fraction, untreated animals (Ctrl) set at 100; for response vs control in vivo at 30 mg/kg: Mus musculus, po, 4 h, read-out: Aβtotal (% vs Ctrl)_Mean
Excerpt: (§1) To determine whether acute administration of an Aβ42 lowering agent would reduce Aβ42 levels in vivo, non-transgenic rodents, e.g. mice or rats were used. Animals treated with the Aβ42 lowering agent were examined and compared to those untreated or treated with vehicle and brain levels of soluble Aβ42 and total Aβ were quantitated by standard techniques, for example, using ELISA. Treatment periods varied from hours (h) to days and were adjusted based on the results of the Aβ42 lowering once a time course of onset of effect could be established.
(§2) A typical protocol for measuring Aβ42 lowering in vivo is shown but it is only one of many variations that could be used to optimize the levels of detectable Aβ. For example, Aβ42 lowering compounds were formulated in 20% of Captisol® (a sulfobutyl ether of β-cyclodextrin) in water or 20% hydroxypropyl β cyclodextrin. The Aβ42 lowering agents were administered as a single oral dose or by any acceptable route of administration to overnight fasted animals. After 4 h, the animals were sacrificed and Aβ42 levels were analysed.
(§3) Blood was collected by decapitation and exsanguinations in EDTA-treated collection tubes. Blood was centrifuged at 1900 g for 10 minutes (min) at 4° C. and the plasma recovered and flash frozen for later analysis. The brain was removed from the cranium and hindbrain. The cerebellum was removed and the left and right hemisphere were separated. The left hemisphere was stored at −18° C. for quantitative analysis of test compound levels. The right hemisphere was rinsed with phosphate-buffered saline (PBS) buffer and immediately frozen on dry ice and stored at −80° C. until homogenization for biochemical assays.
(§4) Mouse brains from non-transgenic animals were resuspended in 8 volumes of 0.4% DEA (diethylamine)/50 mM NaCl containing protease inhibitors (Roche-11873580001 or 04693159001) per gram of tissue, e.g. for 0.158 g brain, add 1.264 mL of 0.4% DEA. All samples were homogenized in the FastPrep-24 system (MP Biomedicals) using lysing matrix D (MPBio #6913-100) at 6 m/s for 20 seconds. Homogenates were centrifuged at 20800×g for 5 min and supernatants collected. Supernatants were centrifuged at 221.300×g for 50 min. The resulting high speed supernatants were then transferred to fresh eppendorf tubes. Nine parts of supernatant were neutralized with 1 part 0.5 M Tris-HCl pH 6.8 and used to quantify Aβtotal and Aβ42.
To quantify the amount of Aβtotal and Aβ42 in the soluble fraction of the brain homogenates, Enzyme-Linked-Immunosorbent-Assays were used. Briefly, the standards (a dilution of synthetic Aβ1-40 and Aβ1-42, Bachem) were prepared in 1.5 mL Eppendorf tube in Ultraculture, with final concentrations ranging from 10000 to 0.3 pg/mL. The samples and standards were co-incubated with HRPO-labelled N-terminal antibody JRF/rAμ/2 for Aβ42 detection and with the biotinylated mid-domain antibody 4G8 for Aβtotal detection. 50 μl of conjugate/sample or conjugate/standards mixtures were then added to the antibody-coated plate (the capture antibodies selectively recognize the C-terminal end of Aβ42, antibody JRF/cAβ42/26, for Aβ42 detection and the N-terminus of AB, antibody JRF/rAβ/2, for Aβtotal detection). The plate was allowed to incubate overnight at 4° C. in order to allow formation of the antibody-amyloid complex. Following this incubation and subsequent wash steps the ELISA for Aβ42 quantification was finished by addition of Quanta Blu fluorogenic peroxidase substrate according to the manufacturer's instructions (Pierce Corp., Rockford, Ill.). A reading was performed after 10 to 15 min (excitation 320 nm/emission 420 nm).
For Aβtotal detection, a Streptavidine-Peroxidase-Conjugate was added, followed 60 min later by an additional wash step and addition of Quanta Blu fluorogenic peroxidase substrate according to the manufacturer's instructions (Pierce Corp., Rockford, Ill.). A reading was performed after 10 to 15 min (excitation 320 nm/emission 420 nm). […]

Aβ38 = assay: In vivo efficacy B-2a: brain soluble Aβ38 in non-transgenic rodents, ELISA; set-up: species or system mouse; details: dose 30 mg/kg oral dosing, brain soluble fraction, untreated animals (Ctrl) set at 100; for response vs control in vivo at 30 mg/kg: Mus musculus, po, read-out: Aβ38 (% vs Ctrl)_Mean
Excerpt: Aβ38 increasing agents can be administered in any standard form using any standard method. For example, but not limited to, Aβ38 increasing agents can be in the form of liquid, tablets or capsules that are taken orally or by injection.
as §1, with “Aβ38 increasing agents” for “Aβ42 lowering agent”, “increase Aβ38” for “reduce Aβ42”, “Aβ38” for “Aβ42”, “Aβ38 increase” for “Aβ42 lowering”
as §2, with “measuring Aβ38 increase” for “measuring Aβ42 lowering”, “example, Aβ38 increasing agents” for “example, Aβ42 lowering compounds”, “The Aβ38 increasing” for “The Aβ42 lowering”, “and Aβ38” for “and Aβ42”
as §3
as §4, with “Aβ38.” for “Aβ42.”
To quantify the amount of Aβtotal and Aβ38 in the soluble fraction of the brain homogenates, Enzyme-Linked-Immunosorbent-Assays were used. Briefly, the standards (a dilution of synthetic Aβ1-40 and Aβ1-38, ANASPEC) were prepared in 1.5 mL Eppendorf tube in Ultraculture, with final concentrations ranging from 10000 to 0.3 pg/mL. The samples and standards were co-incubated with HRPO-labelled N-terminal antibody for Aβ38 detection and with the biotinylated mid-domain antibody 4G8 for Aβtotal detection. 50 μl of conjugate/sample or conjugate/standards mixtures were then added to the antibody-coated plate (the capture antibodies selectively recognize the C-terminal end of Aβ38, antibody J&JPRD/Aβ38/5, for Aβ38 detection and the N-terminus of Aβ, antibody JRF/rAβ/2, for Aβtotal detection). The plate was allowed to incubate overnight at 4° C. in order to allow formation of the antibody-amyloid complex. Following this incubation and subsequent wash steps the ELISA for Aβ38 quantification was finished by addition of Quanta Blu fluorogenic peroxidase substrate according to the manufacturer's instructions (Pierce Corp., Rockford, Ill.). A reading was performed after 10 to 15 min (excitation 320 nm/emission 420 nm). […]

SMILES | response vs control in vivo at 30 mg/kg (Aβtotal) [%] | response vs control in vivo at 30 mg/kg (Aβ38) [%] | other results
N#Cc1ccc2[nH]c(-c3cn4c(n3)C(c3ccccc3Cl)CCC4)cc2c1 (stereo not shown) [Compound 16, 2-[8-(2-chlorophenyl)-5,6,7,8-tetrahydroimidazo[1,2-a]pyridin-2-yl]-1H-indole-5-carbonitrile] | 95 | 120 | –
N#Cc1ccc2[nH]c(-c3nc4n(n3)CCCC4c3ccccc3C(F)(F)F)cc2c1 (stereo not shown) [Compound 18, 2-[5,6,7,8-tetrahydro-8-[2-(trifluoromethyl)phenyl][1,2,4]triazolo[1,5-a]pyridin-2-yl]-1H-indole-5-carbonitrile] | 102 | 87 | –
N#Cc1ccc2[nH]c(-c3nc4n(n3)CCCC4c3cccc(OC(F)(F)F)c3)cc2c1 (stereo not shown) [Compound 20, 2-[5,6,7,8-tetrahydro-8-[3-(trifluoromethoxy)phenyl][1,2,4]triazolo[1,5-a]pyridin-2-yl]-1H-indole-5-carbonitrile] | 113 | 122 | –
Cc1cn(-c2cc3cc(-c4nc5n(n4)CCCC5c4ccccc4C)[nH]c3cn2)cn1 (stereo not shown) [Compound 30, 5,6,7,8-tetrahydro-2-[5-(4-methyl-1H-imidazol-1-yl)-1H-pyrrolo[2,3-c]pyridin-2-yl]-8-(2-methylphenyl)-[1,2,4]triazolo[1,5-a]pyridine] | 97 | 118 | –
Cc1cn(-c2ccc3[nH]c(-c4nc5n(n4)CCOC5c4ccccc4C(F)(F)F)cc3c2)cn1 (stereo not shown) [Compound 37, 5,6-dihydro-2-[5-(4-methyl-1H-imidazol-1-yl)-1H-indol-2-yl]-8-[2-(trifluoromethyl)phenyl]-8H-[1,2,4]triazolo[5,1-c][1,4]oxazine] | 93 | 118 | –
Cc1cn(-c2ccc3[nH]c(-c4nc5n(n4)CCOC5c4ccc(F)cc4C)cc3c2)cn1 (stereo not shown) [Compound 39, 8-(4-fluoro-2-methylphenyl)-5,6-dihydro-2-[5-(4-methyl-1H-imidazol-1-yl)-1H-indo-2-yl]-8H-[1,2,4]triazolo[5,1-c][1,4]oxazine] | – | – | Aβtotal (% vs Ctrl)_Mean (Aβtotal): 99 % vs Ctrl; Aβ38 (% vs Ctrl)_Mean (Aβ38): 132 % vs Ctrl
COc1c(C#N)ccc2[nH]c(-c3cn4c(n3)C(c3ccc(F)cc3C)OCC4)cc12 (stereo not shown) [Compound 46, 2-[8-(4-fluoro-2-methylphenyl)-5,6-dihydro-8H-imidazo[2,1-c][1,4]oxazin-2-yl]-4-methoxy-1H-indole-5-carbonitrile] | – | – | Aβtotal (% vs Ctrl)_Mean (Aβtotal; 30 mg/kg): 88 % vs Ctrl; Aβ38 (% vs Ctrl)_Mean (Aβ38; 30 mg/kg): 109 % vs Ctrl
COc1c(C#N)ccc2[nH]c(-c3cn4c(n3)C(c3ccc(F)cc3C)OCC4)cc12 (stereo not shown) [Compound 47, 2-[8-(4-fluoro-2-methylphenyl)-5,6-dihydro-8H-imidazo[2,1-c][1,4]oxazin-2-yl]-4-methoxy-1H-indole-5-carbonitrile] | – | – | Aβtotal (% vs Ctrl)_Mean (Aβtotal; 30 mg/kg): 117 % vs Ctrl; Aβ38 (% vs Ctrl)_Mean (Aβ38; 30 mg/kg): 87 % vs Ctrl
COc1c(C#N)ccc2[nH]c(-c3nc4n(n3)CCOC4c3ccccc3C(F)(F)F)cc12 (stereo not shown) [Compound 55, 2-[5,6-dihydro-8-[2-(trifluoromethyl)phenyl]-8H-[1,2,4]triazolo[5,1-c][1,4]oxazin-2-yl]-4-methoxy-1H-indole-5-carbonitrile] | 111 | 130 | –
COc1c(C#N)ccc2[nH]c(-c3nc4n(n3)CCCC4c3ccc(F)cc3C)cc12 (stereo not shown) [Compound 59, 2-[8-(4-fluoro-2-methylphenyl)-5,6,7,8-tetrahydro[1,2,4]triazolo[1,5-a]pyridin-2-yl]-4-methoxy-1H-indole-5-carbonitrile] | 86 | 91 | –
Cc1cc(F)ccc1C1CCCn2cc(-c3cc4cc(C#N)ccc4[nH]3)nc21 (stereo not shown) [Compound 63, 2-[8-(4-fluoro-2-methylphenyl)-5,6,7,8-tetrahydroimidazo[1,2-a]pyridin-2-yl]-1H-indole-5-carbonitrile] | – | – | Aβtotal (% vs Ctrl)_Mean (Aβtotal; 30 mg/kg): 121 % vs Ctrl; Aβ38 (% vs Ctrl)_Mean (Aβ38; 30 mg/kg): 98 % vs Ctrl
Cc1cc(F)ccc1C1CCCn2cc(-c3cc4cc(C#N)ccc4[nH]3)nc21 (stereo not shown) [Compound 64, 2-[8-(4-fluoro-2-methylphenyl)-5,6,7,8-tetrahydroimidazo[1,2-a]pyridin-2-yl]-1H-indole-5-carbonitrile] | – | – | Aβtotal (% vs Ctrl)_Mean (Aβtotal; 30 mg/kg): 100 % vs Ctrl; Aβ38 (% vs Ctrl)_Mean (Aβ38; 30 mg/kg): 122 % vs Ctrl
Cc1cn(-c2ccc3[nH]c(-c4nc5n(n4)CCCC5c4ccc(F)cc4C)cc3n2)cn1 (stereo not shown) [Compound 65, 8-(4-fluoro-2-methylphenyl)-5,6,7,8-tetrahydro-2-[5-(4-methyl-1H-imidazol-1-yl)-1H-pyrrolo[3,2-b]pyridin-2-yl]-[1,2,4]triazolo[1,5-a]pyridine] | 108 | 101 | –
Cc1cc(F)ccc1C1CCCn2nc(-c3cc4nc(-c5cnn(C)c5)ccc4[nH]3)nc21 (stereo not shown) [Compound 69, 8-(4-fluoro-2-methylphenyl)-5,6,7,8-tetrahydro-2-[5-(1-methyl-1H-pyrazol-4-yl)-1H-pyrrolo[3,2-b]pyridin-2-yl]-[1,2,4]triazolo[1,5-a]pyridine] | 122 | 106 | –
